The record followed here is ChEMBL document CHEMBL1133185, “Inhibition of clinically relevant mutant variants of HIV-1 by quinazolinone non-nucleoside reverse transcriptase inhibitors” (J Med Chem, 2000).

For assay [1], the target named is Human immunodeficiency virus type 1 reverse transcriptase (Human immunodeficiency virus 1) (UniProt Q72547). Conditions: Plasma.
Description: Effect of human plasma protein binding on antiviral efficacy.
The test system of assay [2] is Human immunodeficiency virus 1. Nature of the assay: In vitro antiviral activity against HIV-1 (L100I). The assay is classed as functional.
In assay [3] the test system is Human immunodeficiency virus 1. Kind of assay: Antiviral activity toward K103N mutant HIV-1 virus as protein binding adjusted (PB adj). Type of assay: functional.
Assay [4] relates to Human immunodeficiency virus 1. Nature of the assay: Antiviral activity against HIV-1 K103N mutant virus. The assay is classed as functional.
Assay [5] concerns Human immunodeficiency virus 1. Nature of the assay: Antiviral activity was evaluated for the inhibition of wild-type RF strain of HIV-1 in an in vitro enzyme assay. Type of assay: functional.
For assay [6], the target named is Human immunodeficiency virus type 1 reverse transcriptase (Human immunodeficiency virus 1, UniProt Q72547). Kind of assay: Inhibition of HIV-1 reverse transcriptase.
In assay [7] the test system is Human immunodeficiency virus 1. Kind of assay: Compound was evaluated for the inhibition of wilde-type RF strain of HIV-1. Type of assay: functional.
For assay [8], the target named is Human immunodeficiency virus type 1 reverse transcriptase (Human immunodeficiency virus 1) (UniProt Q72547). Kind of assay: Compound was evaluated for the inhibition of HIV-1 Reverse transcriptase.
Assay [9] has as its system Human immunodeficiency virus 1. Nature of the assay: Compound was evaluated for antiviral activity against L100I mutant virus. The assay is classed as functional.
The species named for assay [10] is Homo sapiens. Kind of assay: percentage of the free compound in human serum. Type of assay: cell-free.
The species named for assay [11] is Homo sapiens. Nature of the assay: percentage of the free compound in tissue culture medium.

For orientation: IC90 means the concentration needed for an effect of 90%. What is called IC50 is the concentration at which inhibition is half-maximal. As to `COc1ccc2c(c1)[C@@](C#CC(C)C)(C(F)(F)F)NC(=O)N2`, the IC90 stood at 42 nM in assay [1]; 28 nM in [2]; 599 nM in [3]; 56 nM in [4] (Human immunodeficiency virus 1); 3.8 nM in assay [5]. The molecule further displayed an IC50 in [6] of 401 nM.
Regarding `O=C1Nc2ccc(Cl)cc2[C@](C#CC2CC2)(C(F)(F)F)N1`, the IC90 in assay [7] stood at 34000 nM; in assay [8] it was 267 nM.
For `O=C1Nc2ccc(F)c(F)c2[C@@](C#Cc2ccccn2)(C(F)(F)F)N1`, the IC90 was found to be 24 nM in [1]; 37 nM in [2]; 1310 nM in [3]; 109 nM in assay [4] (Human immunodeficiency virus 1); 2 nM in assay [5]. For the same molecule, it took 68 nM to reach half-maximal inhibition in assay [6] (IC50).
`O=C1Nc2ccc(F)cc2[C@@](C#CC2CC2)(C(F)(F)F)N1`: the IC90 in assay [1] came to 24 nM; in assay [2], 29 nM; in assay [3], 566 nM; in assay [4] (Human immunodeficiency virus 1), 48 nM; in assay [5], 2 nM. In assay [6], this molecule yielded an IC50 of 50 nM.
For `COc1ccc2c(c1)[C@@](C#Cc1ccccc1)(C(F)(F)F)NC(=O)N2`, the IC90 in [1] turned out to be 42 nM; in assay [2], 462 nM; in assay [3], 3590 nM; in assay [4] (Human immunodeficiency virus 1) it was 283 nM; in [5], 3.2 nM. The IC50 in [6] was found to be 219 nM.
With `CC(C)C#C[C@]1(C(F)(F)F)NC(=O)Nc2ccc(F)c(F)c21` (stereo in doubt; 20) [listing 1 of 2 here], the IC90 in [2] came out at 10 nM; in [3], 139 nM; in assay [4] (Human immunodeficiency virus 1), 14 nM; in assay [5] it was 2.1 nM. Also, inhibition in assay [6] was half-maximal at 91 nM (IC50).
On to `O=C1Nc2ccc(Cl)cc2[C@@](C#CC2CC2)(C(F)(F)F)N1` (stereo in doubt; 14) [listing 1 of 2 here], for which the IC90 in [1] was found to be 41 nM.
On to `O=C1Nc2cccc(F)c2[C@@](C#CC2CC2)(C(F)(F)F)N1`, for which the IC90 was 14 nM in assay [1]; 108 nM in assay [2]; 917 nM in assay [3]; 89 nM in assay [4] (Human immunodeficiency virus 1); 1.4 nM in [5]. In assay [6], this molecule showed an IC50 of 62 nM.
On to `O=C1Nc2ccc(Cl)c(F)c2[C@@](C#CC2CC2)(C(F)(F)F)N1`, for which the IC90 came to 40 nM in [1], 151 nM in assay [3], 18 nM in assay [4] (Human immunodeficiency virus 1) and 4.8 nM in assay [5]. For the same molecule, the IC50 in assay [6] was 102 nM.
For `O=C1Nc2ccc(Cl)c(Cl)c2[C@@](C#CC2CC2)(C(F)(F)F)N1` the same measures were 88 nM, 196 nM, 18 nM, 8 nM and 166 nM.
For the molecule `O=C1Nc2ccc(F)cc2[C@@](C#Cc2ccccc2)(C(F)(F)F)N1`, the IC90 in [1] stood at 66 nM; in assay [2], 677 nM; in assay [3] it was 3220 nM; in [4] (Human immunodeficiency virus 1), 322 nM; in assay [5], 6.6 nM. The molecule also came in with an IC50 in assay [6] of 143 nM.
As for `O=C1Nc2ccc(Cl)cc2[C@@](C#Cc2ccccc2)(C(F)(F)F)N1`, the IC90 in assay [1] came to 86 nM; in assay [2], 365 nM; in assay [3] it was 3000 nM; in assay [4] (Human immunodeficiency virus 1) it was 250 nM; in [5], 7.1 nM. This molecule displayed an IC50 in assay [6] of 277 nM.
As to `O=C1Nc2ccc(F)c(F)c2[C@@](C#CC2CC2)(C(F)(F)F)N1` (stereo in doubt; 13) [listing 1 of 2 here], the 90% effect level in assay [1] (IC90) was put at 19 nM.
In the case of `CC(C)C#C[C@]1(C(F)(F)F)NC(=O)Nc2ccc(F)cc21`, the IC90 was determined as 86 nM in assay [1]; 17 nM in assay [2]; 891 nM in assay [3]; 27 nM in assay [4] (Human immunodeficiency virus 1); 2.6 nM in assay [5]. The molecule also displayed an IC50 in assay [6] of 39 nM.
On to `CCC#C[C@]1(C(F)(F)F)NC(=O)Nc2ccc(F)cc21`, for which the IC90 was 25 nM in assay [1]; 710 nM in assay [3]; 71 nM in assay [4] (Human immunodeficiency virus 1); 74 nM in [9]; 2.5 nM in [5]. The molecule further showed an IC50 in [6] of 54 nM.
`O=C1Nc2ccc(F)c(F)c2[C@@](C#Cc2ccccc2)(C(F)(F)F)N1`: the concentration for an effect of 90% (IC90) was 43 nM in assay [1]; 256 nM in [2]; 1340 nM in assay [3]; 191 nM in assay [4] (Human immunodeficiency virus 1); 6.2 nM in assay [5]. Besides, the IC50 in assay [6] was 181 nM.
Regarding `O=C1Nc2ccc(F)c(F)c2[C@@](C#CC2CC2)(C(F)(F)F)N1` (stereo in doubt; 13) [listing 2 of 2 here], the IC90 is 12 nM in assay [2], 119 nM in [3], 13 nM in assay [4] (Human immunodeficiency virus 1) and 2.1 nM in [5]. Moreover, half-maximal inhibition in [6] (IC50) required 74 nM.
`CC(C)C#C[C@]1(C(F)(F)F)NC(=O)Nc2ccc(F)c(F)c21` (stereo in doubt; 37) [listing 1 of 2 here]: it took 15 nM to reach the 90% level in assay [8] (IC90).
Consider `O=C1Nc2cccc(Cl)c2[C@@](C#CC2CC2)(C(F)(F)F)N1`, for which the IC90 came out at 18 nM in [1]; 70 nM in assay [2]; 441 nM in assay [3]; 63 nM in assay [4] (Human immunodeficiency virus 1); 2.5 nM in assay [5]. The molecule further showed an IC50 in assay [6] of 72 nM.
Consider `CC(C)C#C[C@@]1(C(F)(F)F)NC(=O)Nc2ccc(F)c(F)c21`, for which the IC90 came out at 229 nM in [7] and 1520 nM in [8].
As for `CC(C)C#C[C@]1(C(F)(F)F)NC(=O)Nc2ccc(Cl)cc21`, the IC90 came out at 90 nM in assay [1]; 28 nM in assay [2]; 653 nM in assay [3]; 22 nM in assay [4] (Human immunodeficiency virus 1); 3 nM in assay [5]. Half-maximal inhibition in assay [6] (IC50) required 281 nM.
Regarding `O=C1Nc2ccc(F)c(F)c2[C@@](C#CC2CC2)(C(F)(F)F)N1` (stereo in doubt), the values for the Free in the assay listed under Homo sapiens [10] and in the assay filed under Homo sapiens [11] were 2.8% and 37%, respectively. In addition, in [8], it took 18 nM to reach the 90% level (IC90).
As to `O=C1Nc2ccc(Cl)cc2[C@@](C#Cc2ccccn2)(C(F)(F)F)N1`, the IC90 turned out to be 79 nM in assay [1]; 64 nM in [2]; 3730 nM in [3]; 160 nM in [4] (Human immunodeficiency virus 1); 3.4 nM in assay [5]. Moreover, the IC50 in [6] was found to be 129 nM.
Turning to `COc1ccc2c(c1)[C@@](C#CC1CC1)(C(F)(F)F)NC(=O)N2`, the IC90 amounted to 29 nM in assay [1]; 46 nM in assay [2]; 396 nM in assay [3]; 40 nM in [4] (Human immunodeficiency virus 1); 2.9 nM in [5]. Also, the IC50 in assay [6] turned out to be 124 nM.
Regarding `CC(C)C#C[C@]1(C(F)(F)F)NC(=O)Nc2ccc(F)c(F)c21` (stereo in doubt; 20) [listing 2 of 2 here], in assay [1], the IC90 came out at 21 nM.
For `O=C1Nc2ccc(F)c(Cl)c2[C@@](C#CC2CC2)(C(F)(F)F)N1`, the IC90 is 27 nM in assay [1]; 16 nM in [2]; 178 nM in assay [3]; 18 nM in assay [4] (Human immunodeficiency virus 1); 2.7 nM in [5]. Besides, in assay [6], the IC50 worked out at 59 nM.
As to `CCC#C[C@]1(C(F)(F)F)NC(=O)Nc2ccc(Cl)cc21`, the IC90 came out at 83 nM in assay [1], 826 nM in assay [3], 26 nM in [4] (Human immunodeficiency virus 1) and 3.3 nM in [5]. Also, inhibition in [6] was half-maximal at 110 nM (IC50).
Regarding `CC(C)C#C[C@]1(C(F)(F)F)NC(=O)Nc2ccc(F)c(Cl)c21`, the IC90 in assay [1] is 15 nM; in assay [2] it was 13 nM; in [3], 74 nM; in assay [4] (Human immunodeficiency virus 1), 15 nM; in assay [5] it was 3 nM. In assay [6], this molecule had an IC50 of 78 nM.
As to `Cc1ccnc2c1NC(=O)c1cccnc1N2C1CC1` [NEVIRAPINE], the IC90 is 100 nM in assay [1], 10200 nM in assay [3], 5100 nM in [4] (Human immunodeficiency virus 1) and 50 nM in assay [5].
With `O=C1Nc2ccc(F)c(F)c2[C@](C#CC2CC2)(C(F)(F)F)N1`, the values for the IC90 in [7] and in assay [8] were 101 nM and 6600 nM, respectively.
Turning to `CC(C)Nc1cccnc1N1CCN(C(=O)c2cc3cc(NS(C)(=O)=O)ccc3[nH]2)CC1` [DELAVIRDINE], the IC90 in assay [3] was 38000 nM; in [4] (Human immunodeficiency virus 1) it was 1000 nM; in [5] it was 37 nM.
For `COc1ccc2c(c1)[C@@](C#Cc1ccccn1)(C(F)(F)F)NC(=O)N2`, the IC90 in [1] was 138 nM; in assay [2], 98 nM; in assay [3], 5880 nM; in assay [4] (Human immunodeficiency virus 1), 338 nM; in [5], 8.1 nM. Further, in assay [6], the IC50 was 237 nM.
For `O=C1Nc2ccc(Cl)cc2[C@@](C#CC2CC2)(C(F)(F)F)N1` (stereo in doubt; 14) [listing 2 of 2 here], the IC90 in [2] amounted to 18 nM; in assay [3], 336 nM; in assay [4], 22 nM; in [5], 2.7 nM. In addition, in [6], the IC50 was 111 nM.
On to `CC(C)C#C[C@]1(C(F)(F)F)NC(=O)Nc2ccc(F)c(F)c21` (stereo in doubt; 37) [listing 2 of 2 here], for which the figures for the IC90 in assay [7] and in [4] were 1.6 nM and 9 nM, respectively.
In turn, `O=C1Nc2ccc(Cl)cc2[C@@](C#CC2CC2)(C(F)(F)F)N1` (stereo in doubt) returned an IC90 in assay [8] of 31 nM.
For `O=C1Nc2ccc(F)cc2[C@@](C#Cc2ccccn2)(C(F)(F)F)N1`, the IC90 in assay [1] is 33 nM; in [2], 255 nM; in assay [3] it was 3140 nM; in [4] (Human immunodeficiency virus 1) it was 483 nM; in assay [5], 5 nM. In [6], this molecule had an IC50 of 126 nM.
